# According to PubChem BioAssay AID328 (DTP/NCI, 2004):
# Where “and” joins values, the source holds several entries; their conditions need not be identical. Identical values can stand only once. Toxic doses and inconclusive results are not listed. Residues, ends and D or L forms follow the SMILES beside them. *: point of attachment. Trt = c1ccc(C(c2ccccc2)(c2ccccc2)*)cc1; Bn = c1ccc(C*)cc1
# Test system: BDF1 mice, P388 leukemia ip, median survival T/C
# Experiment: NCI In Vivo Anticancer Drug Screen. Data for tumor model P388 Leukemia (intraperitoneal) in B6D2F1 (BDF1) mice
# Settings: endpoint: median survival time, higher = longer survival
# Procedure, shortened: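 In tumour-bearing mice, survival after compound treatment is set against the vehicle group and given as a quotient.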
# [1] = dose: 12.5 mg/kg/injection, schedule: Q01DX009 (ip), vehicle: saline with Tween-80
# [2] = dose: 25.0 mg/kg/injection, schedule: Q04DX003 (ip), vehicle: saline with Tween-80
# [3] = dose: 50.0 mg/kg/injection, schedule: Q01DX009 (ip), vehicle: saline with Tween-80
# [4] = dose: 50.0 mg/kg/injection, schedule: Q04DX003 (ip), vehicle: saline with Tween-80
# [5] = dose: 12.5 mg/kg/injection, schedule: Q01DX009 (ip), vehicle: saline
# [6] = dose: 25.0 mg/kg/injection, schedule: Q01DX009 (ip), vehicle: saline
# [7] = dose: 100.0 mg/kg/injection, schedule: Q04DX003 (ip), vehicle: saline with Tween-80
# [8] = dose: 200.0 mg/kg/injection, schedule: Q04DX003 (ip), vehicle: saline with Tween-80
# [9] = dose: 400.0 mg/kg/injection, schedule: Q04DX003 (ip), vehicle: saline with Tween-80
# [10] = dose: 100.0 mg/kg/injection, schedule: Q01DX009 (ip), vehicle: saline with Tween-80
# [11] = dose: 100.0 mg/kg/injection, schedule: Q04DX003 (ip), vehicle: Klucel (hydroxypropylcellulose) (HPC)
# [12] = dose: 200.0 mg/kg/injection, schedule: Q04DX003 (ip), vehicle: Klucel (hydroxypropylcellulose) (HPC)
compound,measurement,setting,value
CCOCCO,T/C,"dose: 5.0 mg/kg/injection, schedule: Q01DX009 (ip), vehicle: saline",103 % of control
same,T/C,"dose: 5.0 mg/kg/injection, schedule: Q04DX003 (ip), vehicle: saline",92 % of control
same,T/C,"dose: 10.0 mg/kg/injection, schedule: Q01DX009 (ip), vehicle: saline",88 % of control
same,T/C,"dose: 10.0 mg/kg/injection, schedule: Q04DX003 (ip), vehicle: saline",92 % of control
same,T/C,"dose: 20.0 mg/kg/injection, schedule: Q04DX003 (ip), vehicle: saline",88 % of control
Cc1nc(N)c(N)nc1C,T/C,[1],95 % of control
same,T/C,"dose: 25.0 mg/kg/injection, schedule: Q01DX009 (ip), vehicle: saline with Tween-80",88 % of control
same,T/C,[2],102 % of control
same,T/C,[3],107 % of control
same,T/C,[4],101 % of control
O=C1OCC2CC3c4ccccc4C12c1ccccc13 (stereo not drawn),T/C,"dose: 200.0 mg/kg/injection, schedule: Q01DX001 (ip), vehicle: Klucel (hydroxypropylcellulose) (HPC)",105 % of control
same,T/C,"dose: 400.0 mg/kg/injection, schedule: Q01DX001 (ip), vehicle: Klucel (hydroxypropylcellulose) (HPC)",95 % of control
NC(=O)Oc1cccc(OC(N)=O)c1,T/C,"dose: 12.5 mg/kg/injection, schedule: Q04DX003 (ip), vehicle: water",106 % of control
same,T/C,"dose: 25.0 mg/kg/injection, schedule: Q04DX003 (ip), vehicle: water",106 % of control
same,T/C,"dose: 50.0 mg/kg/injection, schedule: Q04DX003 (ip), vehicle: water",111 % of control
same,T/C,"dose: 100.0 mg/kg/injection, schedule: Q04DX003 (ip), vehicle: water",106 % of control
C[CH2][Sn]([CH2]C)([O]S(=O)(=O)CC12CCC(CC1=O)C2(C)C)[O]S(=O)(=O)CC12CCC(CC1=O)C2(C)C,T/C,[5],173 % of control
same,T/C,[6],195 % of control
CN(C)C(=S)N=Nc1c(O)[nH]c2ccccc12,T/C,"dose: 1.56 mg/kg/injection, schedule: Q01DX009 (ip), vehicle: saline with Tween-80",109 % of control
same,T/C,"dose: 3.13 mg/kg/injection, schedule: Q01DX009 (ip), vehicle: saline with Tween-80",100 % of control
same,T/C,"dose: 6.25 mg/kg/injection, schedule: Q01DX009 (ip), vehicle: saline with Tween-80",100 % of control
same,T/C,[1],92 % of control
same,T/C,[2],105 % of control
same,T/C,[4],100 % of control
same,T/C,"dose: 100.0 mg/kg/injection, schedule: Q04DX003 (ip), vehicle: saline sonified",90 % of control
same,T/C,[7],100 % of control
same,T/C,"dose: 400.0 mg/kg/injection, schedule: Q04DX003 (ip), vehicle: saline sonified",90 % of control
OB(O)C1=CC(c2ccccc2)(c2ccccc2)N=C1,T/C,"dose: 25.0 mg/kg/injection, schedule: Q01DX001 (ip), vehicle: saline sonified",100 % of control
same,T/C,"dose: 50.0 mg/kg/injection, schedule: Q01DX001 (ip), vehicle: saline sonified",100 % of control
same,T/C,"dose: 100.0 mg/kg/injection, schedule: Q01DX001 (ip), vehicle: saline sonified",104 % of control
C(=N\n1cnnc1)/c1ccc(/C=N/n2cnnc2)cc1,T/C,"dose: 100.0 mg/kg/injection, schedule: Q01DX001 (ip), vehicle: saline",118 % of control
same,T/C,"dose: 200.0 mg/kg/injection, schedule: Q01DX001 (ip), vehicle: saline",104 % of control
same,T/C,"dose: 400.0 mg/kg/injection, schedule: Q01DX001 (ip), vehicle: saline",95 % of control
COc1ccc(C(O)c2ccccn2)cc1 (stereo not drawn),T/C,[7],100 % of control
same,T/C,[8],110 % of control
same,T/C,[9],105 % of control
CC(C)(C)C1=C[P+](c2ccccc2)(c2ccccc2)C(C(C)(C)C)=C[P+]1(c1ccccc1)c1ccccc1,T/C,[5],96 % of control
same,T/C,"dose: 12.5 mg/kg/injection, schedule: Q04DX003 (ip), vehicle: saline",96 % of control
same,T/C,[6],107 % of control
same,T/C,"dose: 25.0 mg/kg/injection, schedule: Q04DX003 (ip), vehicle: saline",100 % of control
same,T/C,"dose: 50.0 mg/kg/injection, schedule: Q04DX003 (ip), vehicle: saline",96 % of control
CN(C)c1ccc(C2N(Cc3ccccc3)CCC3CCCCN32)cc1 (stereo not drawn),T/C,[3],99 % of control
same,T/C,[10],92 % of control
CC1=CC(c2ccccc2)=CC(C)(C)C1 (tested in a mixture with another compound),T/C,"dose: 25.0 mg/kg/injection, schedule: Q01DX009 (ip), vehicle: saline sonified",104 % of control
same,T/C,"dose: 50.0 mg/kg/injection, schedule: Q01DX009 (ip), vehicle: saline sonified",109 % of control
same,T/C,"dose: 100.0 mg/kg/injection, schedule: Q01DX009 (ip), vehicle: saline sonified",109 % of control
CC(=N\O)/C(C)=N/O.CC(=N\O)/C(C)=N/O.CC1CC[N-]CC1.CC1CC[N-]CC1.CC1CC[N-]CC1.CC1CC[N-]CC1.[Cl][Rh][Cl].[Pt+2],T/C,"dose: 0.39 mg/kg/injection, schedule: Q01DX009 (ip), vehicle: water",110 % of control
same,T/C,"dose: 0.78 mg/kg/injection, schedule: Q01DX009 (ip), vehicle: water",110 % of control
same,T/C,"dose: 1.56 mg/kg/injection, schedule: Q01DX009 (ip), vehicle: water",98 % of control
same,T/C,"dose: 6.25 mg/kg/injection, schedule: Q01DX009 (ip), vehicle: water",94 % of control
same,T/C,"dose: 12.5 mg/kg/injection, schedule: Q01DX009 (ip), vehicle: water",99 % of control
Nc1ccc(O)c2ncccc12,T/C,"dose: 7.5 mg/kg/injection, schedule: Q01DX010 (ip), vehicle: saline",115 % of control
same,T/C,"dose: 15.0 mg/kg/injection, schedule: Q01DX010 (ip), vehicle: saline",110 % of control
CCCCOB(CI)OCCCC,T/C,"dose: 1.56 mg/kg/injection, schedule: Q01DX009 (ip), vehicle: saline",95 % of control
same,T/C,"dose: 3.13 mg/kg/injection, schedule: Q01DX009 (ip), vehicle: saline",109 % of control
same,T/C,"dose: 6.25 mg/kg/injection, schedule: Q01DX009 (ip), vehicle: saline",89 % of control and 109 % of control
O=[N+]([O-])c1ccc(N/N=C/CCl)c([N+](=O)[O-])c1,T/C,"dose: 6.25 mg/kg/injection, schedule: Q04DX003 (ip), vehicle: saline with Tween-80",120 % of control
same,T/C,"dose: 12.5 mg/kg/injection, schedule: Q04DX003 (ip), vehicle: saline with Tween-80",120 % of control
same,T/C,"dose: 16.5 mg/kg/injection, schedule: Q04DX003 (ip), vehicle: saline with Tween-80",118 % of control
same,T/C,[2],118 % of control
COc1cc2c(c3c1c(=O)c1cc(OC(C)=O)ccc1n3C)C=CC(C)(C)O2,T/C,"dose: 10.0 mg/kg/injection, schedule: Q01DX009 (ip), vehicle: Klucel (hydroxypropylcellulose) (HPC)",100 % of control
same,T/C,"dose: 20.0 mg/kg/injection, schedule: Q01DX009 (ip), vehicle: Klucel (hydroxypropylcellulose) (HPC)",98 % of control
same,T/C,"dose: 40.0 mg/kg/injection, schedule: Q01DX009 (ip), vehicle: Klucel (hydroxypropylcellulose) (HPC)",106 % of control
CCN(c1ccccc1)c1ccc(C=O)cc1,T/C,[11],94 % of control
same,T/C,[12],100 % of control
Cc1ccc(S(=O)(=O)/N=C/NN(C)C)cc1,T/C,[3],97 % of control
same,T/C,[10],112 % of control
same,T/C,"dose: 200.0 mg/kg/injection, schedule: Q01DX009 (ip), vehicle: saline with Tween-80",98 % of control
COC1=CC(=O)C=C(OC)C1=O,T/C,"dose: 2.0 mg/kg/injection, schedule: Q01DX010 (ip), vehicle: saline",105 % of control
same,T/C,"dose: 4.0 mg/kg/injection, schedule: Q01DX010 (ip), vehicle: saline",100 % of control
same,T/C,"dose: 8.0 mg/kg/injection, schedule: Q01DX010 (ip), vehicle: saline",105 % of control
CCC1OCC(C(Cl)CCl)O1 (stereo not drawn),T/C,[10],118 % of control
same,T/C,[7],113 % of control
same,T/C,[8],118 % of control
same,T/C,[9],104 % of control
COC(=O)C(CSC(c1ccccc1)(c1ccccc1)c1ccccc1)NC(=O)C(CSCc1ccccc1)NC(C)=O (stereo not drawn) (Ac-Cys(Bn)-Cys(Trt)-OMe; configuration not given here),T/C,"dose: 100.0 mg/kg/injection, schedule: Q01DX009 (ip), vehicle: other",88 % of control
same,T/C,"dose: 200.0 mg/kg/injection, schedule: Q01DX009 (ip), vehicle: other",93 % of control
same,T/C,"dose: 400.0 mg/kg/injection, schedule: Q01DX009 (ip), vehicle: other",107 % of control
c1ccc(-c2c[nH]c(-c3ccccc3)c2)cc1,T/C,[11],104 % of control
same,T/C,[12],109 % of control
same,T/C,"dose: 400.0 mg/kg/injection, schedule: Q04DX003 (ip), vehicle: Klucel (hydroxypropylcellulose) (HPC)",109 % of control
CC1OC(O[C@@H]2C=C3CC[C@@H]4[C@H](CC[C@]5(C)[C@@H](c6ccc(=O)oc6)CC[C@]45O)[C@@]3(C)CC2)C(O)C(O)C1O (stereo partly drawn),T/C,"dose: 2.5 mg/kg/injection, schedule: Q01DX010 (ip), vehicle: carboxymethylcellulose (CMC)",105 % of control
same,T/C,"dose: 5.0 mg/kg/injection, schedule: Q01DX010 (ip), vehicle: carboxymethylcellulose (CMC)",105 % of control
